Here are results for 1 substance from US8969622B2, “Dendritic molecular intracellular transporters and methods of making and using same” (Vanderbilt University, priority 2006, dated 2015).

The subject of this test is human microvascular endothelial cells (HMEC). The test is described as follows: Internalization into human microvascular endothelial cells (HMEC), temperature effect and controls. The class given is cell-based. As to conditions: 10 uM, 60 min, 37° C. The protocol: The human microvascular endothelial cells (HMEC) cells were incubated with conjugates (10 uM) for 2.5 min at 4° C. or at 37° C.
The HMEC cells were incubated with conjugates (1 uM) for 30 min at 4° C. or at 37° C.
(b) The HMEC cells were incubated with Boc-protected guanidinylated FD-2 (10 uM) for 60 min at 37° C.
Internalization of FD-1 and FD-2 in mammalian cells was assessed using two different cell lines and a previously described method [Futaki, S.; Nakase, I.; Suzuki, T.; Youjun, Y.; Sugiura, Y. Biochemistry 2002, 41, 7925.] with NIH-3T3 fibroblasts and HMEC (human microvascular endothelial cells) and a Zeiss LSM 510 confocal microscope. […] [Futaki, S.; Nakase, I.; Suzuki, T.; Youjun, Y.; Sugiura, Y. Biochemistry 2002, 41, 7925.; Vivès, E.; Brodin, P.; Lebleu, B. J. Biol. Chem. 1997, 272, 16010.] Furthermore, the extent of internalization increased in an incubation time-dependent manner, and it was observed that after just 10 min, the fluorescence intensity of cells treated with FD-2 was near saturation. […] Without wishing to be bound by theory, it is believed that the length of the spacer at the terminal generation of the dendrimer can not only control the uptake rate, [Wender, P. A.; Kreider, E.; Pelkey, E. T.; Steinman, L.; Rothbard, J. B.; VanDeusen, C. L. Org. Lett. 2005, 7, 4815.] but also regulate the subcellular localization of the molecule and its putative cargo. […]

Turning to fluorescein isothiocyanate [free FITC], the “fluorescence of treated cells (control experiments)” value is “no”.
